Source: US12319664B2, “Herbicidally active 3-phenylisoxazoline-5-carboxamides of cyclopentenylcarboxylic acid derivatives” (Bayer Aktiengesellschaft, priority 2018, dated 2025)

Key:
[1] = tested on: ALOMY; experiment: Pre-emergence herbicidal action against ALOMY; assay type: in vivo, Alopecurus myosuroides; conditions: application rate 80 g/ha, scored visually after about 3 weeks vs untreated controls (100% = plants have died, 0% = like control plants)
In short: (§1)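 Pre-emergence soil-surface spray, 600 l/ha water, 0.5% additive; WP or EC formulation. Greenhouse, ~3 wk. Readout: visual % effect vs untreated (0% = control-like, 100% = dead).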

[2] = tested on: AVEFA; experiment: Pre-emergence herbicidal action against AVEFA; assay type: in vivo, Avena fatua; conditions: application rate 80 g/ha, scored visually after about 3 weeks vs untreated controls (100% = plants have died, 0% = like control plants)
In short: as §1

[3] = tested on: CYPES; experiment: Pre-emergence herbicidal action against CYPES; assay type: in vivo; conditions: application rate 80 g/ha, scored visually after about 3 weeks vs untreated controls (100% = plants have died, 0% = like control plants)
Description: (§2) 1. Pre-emergence herbicidal action against harmful plants and crop plant compatibility Seeds of monocotyledonous and dicotyledonous weed plants and crop plants are placed in plastic or wood-fibre pots and covered with soil. The compounds of the invention, formulated in the form of wettable powders (WP) or as emulsion concentrates (EC), are then applied onto the surface of the covering soil as aqueous suspension or emulsion with addition of 0.5% additive at a water application rate of 600 l/ha (converted). After the treatment, the pots are placed in a greenhouse and kept under good growth conditions for the trial plants. After about 3 weeks, the effect of the preparations is scored visually in comparison with untreated controls as percentages. For example, 100% activity=the plants have died, 0% activity=like control plants.

[4] = tested on: ECHCG; experiment: Pre-emergence herbicidal action against ECHCG; assay type: in vivo, Echinochloa crus-galli; conditions: application rate 80 g/ha, scored visually after about 3 weeks vs untreated controls (100% = plants have died, 0% = like control plants)
Description: as §2, with “control plants. [table]” for “control plants.”

[5] = tested on: LOLRI; experiment: Pre-emergence herbicidal action against LOLRI; assay type: in vivo, Lolium rigidum; conditions: application rate 80 g/ha, scored visually after about 3 weeks vs untreated controls (100% = plants have died, 0% = like control plants)
In short: as §1

[6] = tested on: SETVI; experiment: Pre-emergence herbicidal action against SETVI; assay type: in vivo, Setaria viridis; conditions: application rate 80 g/ha, scored visually after about 3 weeks vs untreated controls (100% = plants have died, 0% = like control plants)
In short: as §1

[7] = tested on: AMARE; experiment: Pre-emergence herbicidal action against AMARE; assay type: in vivo, Amaranthus retroflexus; conditions: application rate 80 g/ha
In short: as §1

[8] = tested on: MATIN; experiment: Pre-emergence herbicidal action against MATIN; assay type: in vivo, Matricaria inodora; conditions: application rate 80 g/ha, scored visually after about 3 weeks vs untreated controls (100% = plants have died, 0% = like control plants)
Description: as §2, with “control plants. [table]” for “control plants.”

[9] = tested on: POLCO; experiment: Pre-emergence herbicidal action against POLCO; assay type: in vivo, Polygonum convolvulus; conditions: application rate 80 g/ha
In short: as §1

[10] = tested on: STEME; experiment: Pre-emergence herbicidal action against STEME; assay type: in vivo, Stellaria media; conditions: application rate 80 g/ha
In short: as §1

[11] = tested on: VIOTR; experiment: Pre-emergence herbicidal action against VIOTR; assay type: in vivo, Viola tricolor; conditions: application rate 80 g/ha
In short: as §1

[12] = tested on: LOLRI; experiment: Post-emergence herbicidal action against LOLRI; assay type: in vivo, Lolium rigidum; conditions: application rate 80 g/ha, rated visually after about 3 weeks
In short: (§3)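 Visual scoring, about three weeks after a post-emergence spray, compares treated plants with untreated controls on a 0–100% scale. Spraying used WP or EC preparations with 0.5% additive at 600 l/ha on one-leaf-stage plants grown in sandy loam.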

[13] = tested on: SETVI; experiment: Post-emergence herbicidal action against SETVI; assay type: in vivo, Setaria viridis; conditions: application rate 80 g/ha, rated visually after about 3 weeks
In short: as §3

[14] = tested on: POLCO; experiment: Post-emergence herbicidal action against POLCO; assay type: in vivo, Polygonum convolvulus; conditions: application rate 80 g/ha, rated visually about 3 weeks after treatment
In short: as §3

[15] = tested on: PHBPU; experiment: Pre-emergence herbicidal action against PHBPU; assay type: in vivo, Pharbitis purpurea; conditions: application rate 80 g/ha
Description: as §2, with “control plants. [table]” for “control plants.”

[16] = tested on: HORMU; experiment: Pre-emergence herbicidal action against HORMU; assay type: in vivo, Hordeum murinum; conditions: application rate 80 g/ha
In short: as §1

[17] = tested on: ALOMY; experiment: Post-emergence herbicidal action against ALOMY; assay type: in vivo, Alopecurus myosuroides; conditions: application rate 80 g/ha, rated visually after about 3 weeks
In short: as §3

[18] = tested on: AVEFA; experiment: Post-emergence herbicidal action against AVEFA; assay type: in vivo, Avena fatua; conditions: application rate 80 g/ha, rated visually after about 3 weeks
In short: as §3

[19] = tested on: ECHCG; experiment: Post-emergence herbicidal action against ECHCG; assay type: in vivo, Echinochloa crus-galli; conditions: application rate 80 g/ha, rated visually after about 3 weeks
In short: as §3

[20] = tested on: PHBPU; experiment: Post-emergence herbicidal action against PHBPU; assay type: in vivo, Pharbitis purpurea; conditions: application rate 80 g/ha, rated visually about 3 weeks after treatment
In short: as §3

[21] = tested on: STEME; experiment: Post-emergence herbicidal action against STEME; assay type: in vivo, Stellaria media; conditions: application rate 80 g/ha, rated visually about 3 weeks after treatment
In short: as §3

[22] = tested on: HORMU; experiment: Post-emergence herbicidal action against HORMU; assay type: in vivo, Hordeum murinum; conditions: application rate 80 g/ha
In short: as §3

[23] = tested on: ABUTH; experiment: Pre-emergence herbicidal action against ABUTH; assay type: in vivo, Abutilon theophrasti; conditions: application rate 80 g/ha, scored visually after about 3 weeks vs untreated controls (100% = plants have died, 0% = like control plants)
Description: as §2, with “control plants. [table]” for “control plants.”

[24] = tested on: VERPE; experiment: Pre-emergence herbicidal action against VERPE; assay type: in vivo, Veronica persica; conditions: application rate 80 g/ha
Description: as §2, with “control plants. [table]” for “control plants.”

[25] = tested on: ABUTH; experiment: Post-emergence herbicidal action against ABUTH; assay type: in vivo, Abutilon theophrasti; conditions: application rate 80 g/ha, rated visually about 3 weeks after treatment
In short: as §3

[26] = tested on: AMARE; experiment: Post-emergence herbicidal action against AMARE; assay type: in vivo, Amaranthus retroflexus; conditions: application rate 80 g/ha, rated visually about 3 weeks after treatment
In short: as §3

[27] = tested on: MATIN; experiment: Post-emergence herbicidal action against MATIN; assay type: in vivo, Matricaria inodora; conditions: application rate 80 g/ha, rated visually about 3 weeks after treatment
In short: as §3

[28] = tested on: VIOTR; experiment: Post-emergence herbicidal action against VIOTR; assay type: in vivo, Viola tricolor; conditions: application rate 80 g/ha, rated visually about 3 weeks after treatment
In short: as §3

[29] = tested on: VERPE; experiment: Post-emergence herbicidal action against VERPE; assay type: in vivo, Veronica persica; conditions: application rate 80 g/ha
In short: as §3

Compound	Herbicidal action against [%] ALOMY [1] [%]	Herbicidal action against [%] AVEFA [2] [%]	Herbicidal action against [%] CYPES [3] [%]	Herbicidal action against [%] ECHCG [4] [%]	Herbicidal action against [%] LOLRI [5] [%]	Herbicidal action against [%] SETVI [6] [%]	Herbicidal action against [%] AMARE [7] [%]	Herbicidal action against [%] MATIN [8] [%]	Herbicidal action against [%] POLCO [9] [%]	Herbicidal action against [%] STEME [10] [%]	Herbicidal action against [%] VIOTR [11] [%]	Herbicidal action against [%] LOLRI [12] [%]	Herbicidal action against [%] SETVI [13] [%]	Herbicidal action against [%] POLCO [14] [%]	Herbicidal action against [%] PHBPU [15] [%]	Herbicidal action against [%] HORMU [16] [%]	Herbicidal action against [%] ALOMY [17] [%]	Herbicidal action against [%] AVEFA [18] [%]	Herbicidal action against [%] ECHCG [19] [%]	Herbicidal action against [%] PHBPU [20] [%]	also measured
CC1(C(=O)NC2C=CC(C(=O)NS(=O)(=O)C(F)(F)F)C2)CC(c2cccc(F)c2)=NO1 (mixture of isomers) [II-16]	100	80	100	100	100	80	90	80	90	100	80	80	80	–	–	–	–	–	–	–	–
COC(=O)[C@H]1C=C[C@@H](NC(=O)C2(C)CC(c3cccc(F)c3)=NO2)C1 (stereo partly drawn) [Example I-003, methyl (1R,4S)-4-[[[3-(3-fluorophenyl)-5-methyl-4H-1,2-oxazol-5-yl]carbonyl]amino]cyclopent-2-ene-1-carboxylate]	–	–	100	–	–	–	–	–	80	80	100	–	–	80	–	–	–	–	–	–	–
CCOC(=O)[C@@H]1C=C[C@H](NC(=O)C2(C)CC(c3cccc(F)c3)=NO2)C1 (stereo partly drawn) [Example I-006]	100	90	100	100	100	100	100	90	80	100	90	80	–	–	90	90	80	80	80	80	Herbicidal action against [%] STEME [21]: 80%; Herbicidal action against [%] HORMU [22]: 80%
C=CC1(C(=O)NC2C=CC(C(=O)OCC)C2)CC(c2cc(F)cc(F)c2)=NO1 (stereo not drawn) [Example I-013]	100	100	–	100	100	100	100	100	90	100	100	90	90	90	90	100	80	90	80	80	Herbicidal action against [%] ABUTH [23]: 90%; Herbicidal action against [%] VERPE [24]: 90%; Herbicidal action against [%] ABUTH [25]: 80%; Herbicidal action against [%] AMARE [26]: 80%; Herbicidal action against [%] MATIN [27]: 90%; Herbicidal action against [%] STEME [21]: 80%; Herbicidal action against [%] VIOTR [28]: 80%; Herbicidal action against [%] VERPE [29]: 80%; Herbicidal action against [%] HORMU [22]: 90%
